Laboratory results from patent US20250346602A1, “LACTAM SUBSTITUTED IMIDAZOPYRIDAZINE IL-17A MODULATORS AND USES THEREOF” (DICE ALPHA, INC., priority 2022, published 2025).

Molecular target: T1, IL-17A/A (Homo sapiens, UniProt Q16552)
T1 construct: purchased Genscript Z03228
T1 sequence (Q16552 24-155): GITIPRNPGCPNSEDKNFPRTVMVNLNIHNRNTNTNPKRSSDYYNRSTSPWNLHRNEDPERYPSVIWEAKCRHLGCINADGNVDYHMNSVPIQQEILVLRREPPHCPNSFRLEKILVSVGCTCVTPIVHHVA
Assay: IL-17A/A HEK-Blue cell assay
Format: cell-based
Conditions: HEK-Blue IL-17A reporter cell line (HEK 293), IL-17A/A stimulation, 20 hours incubation, SEAP read at A630
Summary of the method: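 IC50 came from a 4-parameter fit of SEAP read at A630 (Quanti-Blue). Compound was titrated to a top final concentration of 10, 1 or 0.3 uM with 0.1% final DMSO and added just before IL-17A/A. Incubation lasted 20 hours in HEK293 cells engineered with IL-17RA, IL-17RC, Act1 and an NFκB-SEAP reporter.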

| SMILES | IC50 [nM] |
| --- | --- |
| Cc1nonc1C(=O)N[C@H](c1cn2nc(CC3C[C@@H](C(F)(F)F)CNC3=O)ccc2n1)C1CCC(F)(F)CC1 (stereo partly drawn) [Compound 100, N-((1S)-(4,4-difluorocyclohexyl)(6-(((5R)-2-oxo-5-(trifluoromethyl)piperidin-3-yl)methyl)imidazo[1,2-b]pyridazin-2-yl)methyl)-4-methyl-1,2,5-oxadiazole-3-carboxamide] | 100 to 1000 |
| O=C(N[C@H](c1cn2nc(CC3C[C@@H](C(F)(F)F)CNC3=O)ccc2n1)C1CCC(F)(F)CC1)c1ccnn1CCF (stereo partly drawn) [Compound 101, N-((1S)-(4,4-difluorocyclohexyl)(6-(((5R)-2-oxo-5-(trifluoromethyl)piperidin-3-yl)methyl)imidazo[1,2-b]pyridazin-2-yl)methyl)-1-(2-fluoroethyl)-1H-pyrazole-5-carboxamide] | 100 to 1000 |
| O=C(N[C@H](c1cn2nc(CC3C[C@@H](C(F)(F)F)CNC3=O)ccc2n1)C1CCC(F)(F)CC1)c1nonc1C1CC1 (stereo partly drawn) [Compound 104, 4-cyclopropyl-N-((1S)-(4,4-difluorocyclohexyl)(6-(((5R)-2-oxo-5-(trifluoromethyl)piperidin-3-yl)methyl)imidazo[1,2-b]pyridazin-2-yl)methyl)-1,2,5-oxadiazole-3-carboxamide] | < 100 |
| O=C(N[C@H](c1cn2nc(CC3C[C@@H](C(F)(F)F)CNC3=O)ccc2n1)C1CCC(F)(F)CC1)c1ccnn1CC(F)(F)F (stereo partly drawn) [Compound 105, N-((1S)-(4,4-difluorocyclohexyl)(6-(((5R)-2-oxo-5-(trifluoromethyl)piperidin-3-yl)methyl)imidazo[1,2-b]pyridazin-2-yl)methyl)-1-(2,2,2-trifluoroethyl)-1H-pyrazole-5-carboxamide] | 100 to 1000 |
| O=C(N[C@H](c1cn2nc(CC3C[C@@H](C(F)(F)F)CNC3=O)ccc2n1)C1CCC(F)(F)CC1)c1ccnn1CC(F)F (stereo partly drawn) [Compound 106, N-((1S)-(4,4-difluorocyclohexyl)(6-(((5R)-2-oxo-5-(trifluoromethyl)piperidin-3-yl)methyl)imidazo[1,2-b]pyridazin-2-yl)methyl)-1-(2,2-difluoroethyl)-1H-pyrazole-5-carboxamide] | 100 to 1000 |
| CC(C)n1nncc1C(=O)N[C@H](c1cn2nc(CC3C[C@@H](C(F)(F)F)CNC3=O)ccc2n1)C1CCC(F)(F)CC1 (stereo partly drawn) [Compound 107, N-((1S)-(4,4-difluorocyclohexyl)(6-(((5R)-2-oxo-5-(trifluoromethyl)piperidin-3-yl)methyl)imidazo[1,2-b]pyridazin-2-yl)methyl)-1-isopropyl-1H-1,2,3-triazole-5-carboxamide] | 100 to 1000 |
| CCn1nncc1C(=O)N[C@H](c1cn2nc(CC3C[C@@H](C(F)(F)F)CNC3=O)ccc2n1)C1CCC(F)(F)CC1 (stereo partly drawn) [Compound 108, N-((1S)-(4,4-difluorocyclohexyl)(6-(((5R)-2-oxo-5-(trifluoromethyl)piperidin-3-yl)methyl)imidazo[1,2-b]pyridazin-2-yl)methyl)-1-ethyl-1H-1,2,3-triazole-5-carboxamide] | 100 to 1000 |
| O=C(N[C@H](c1cn2nc(CC3C[C@@H](C(F)(F)F)CNC3=O)ccc2n1)C1CCC(F)(F)CC1)c1cnnn1CCF (stereo partly drawn) [Compound 109, N-((1S)-(4,4-difluorocyclohexyl)(6-(((5R)-2-oxo-5-(trifluoromethyl)piperidin-3-yl)methyl)imidazo[1,2-b]pyridazin-2-yl)methyl)-1-(2-fluoroethyl)-1H-1,2,3-triazole-5-carboxamide] | 100 to 1000 |
| CC(C)n1nccc1C(=O)N[C@H](c1cn2nc(CC3C[C@@H](C(F)(F)F)CNC3=O)ccc2n1)C1CCC(F)(F)CC1 (stereo partly drawn) [Compound 111, N-((1S)-(4,4-difluorocyclohexyl)(6-(((5R)-2-oxo-5-(trifluoromethyl)piperidin-3-yl)methyl)imidazo[1,2-b]pyridazin-2-yl)methyl)-1-isopropyl-1H-pyrazole-5-carboxamide] | < 100 |
| CCc1nonc1C(=O)N[C@H](c1cn2nc(CC3C[C@@H](C(F)(F)F)CNC3=O)ccc2n1)C1CCC(F)(F)CC1 (stereo partly drawn) [Compound 112, N-((1S)-(4,4-difluorocyclohexyl)(6-(((5R)-2-oxo-5-(trifluoromethyl)piperidin-3-yl)methyl)imidazo[1,2-b]pyridazin-2-yl)methyl)-4-ethyl-1,2,5-oxadiazole-3-carboxamide] | 100 to 1000 |
| O=C(N[C@H](c1cn2nc(CC3C[C@@H](C(F)(F)F)CNC3=O)ccc2n1)C1CCC(F)(F)CC1)c1nonc1C(F)(F)F (stereo partly drawn) [Compound 113, N-((1S)-(4,4-difluorocyclohexyl)(6-(((5R)-2-oxo-5-(trifluoromethyl)piperidin-3-yl)methyl)imidazo[1,2-b]pyridazin-2-yl)methyl)-4-(trifluoromethyl)-1,2,5-oxadiazole-3-carboxamide] | 100 to 1000 |
| O=C(N[C@H](c1cn2nc(CC3C[C@@H](C(F)(F)F)CNC3=O)ccc2n1)C1CCC(F)(F)CC1)c1nonc1C(F)F (stereo partly drawn) [Compound 115, N-((1S)-(4,4-difluorocyclohexyl)(6-(((5R)-2-oxo-5-(trifluoromethyl)piperidin-3-yl)methyl)imidazo[1,2-b]pyridazin-2-yl)methyl)-4-(difluoromethyl)-1,2,5-oxadiazole-3-carboxamide] | 100 to 1000 |
| O=C(N[C@H](c1cn2nc(CC3C[C@@H](C(F)(F)F)CNC3=O)ccc2n1)C1CCC(F)(F)CC1)c1nonc1CC(F)(F)F (stereo partly drawn) [Compound 116, N-((1S)-(4,4-difluorocyclohexyl)(6-(((5R)-2-oxo-5-(trifluoromethyl)piperidin-3-yl)methyl)imidazo[1,2-b]pyridazin-2-yl)methyl)-4-(2,2,2-trifluoroethyl)-1,2,5-oxadiazole-3-carboxamide] | 100 to 1000 |
| CC(C)c1nonc1C(=O)N[C@H](c1cn2nc(CC3C[C@@H](C(F)(F)F)CNC3=O)ccc2n1)C1CCC(F)(F)CC1 (stereo partly drawn) [Compound 117, N-((1S)-(4,4-difluorocyclohexyl)(6-(((5R)-2-oxo-5-(trifluoromethyl)piperidin-3-yl)methyl)imidazo[1,2-b]pyridazin-2-yl)methyl)-4-isopropyl-1,2,5-oxadiazole-3-carboxamide] | < 100 |
| O=C(N[C@H](c1cn2nc(CC3C[C@@H](C(F)(F)F)CNC3=O)ccc2n1)C1CCC(F)(F)CC1)c1conc1CC(F)F (stereo partly drawn) [Compound 120, N-((1S)-(4,4-difluorocyclohexyl)(6-(((5R)-2-oxo-5-(trifluoromethyl)piperidin-3-yl)methyl)imidazo[1,2-b]pyridazin-2-yl)methyl)-3-(2,2-difluoroethyl)isoxazole-4-carboxamide] | 100 to 1000 |

The remaining lines, values ahead:

| IC50 [nM] | SMILES |
| --- | --- |
| < 100 | CC(C)c1nocc1C(=O)N[C@H](c1cn2nc(CC3C[C@@H](C(F)(F)F)CNC3=O)ccc2n1)C1CCC(F)(F)CC1 (stereo partly drawn) [Compound 102, N-((1S)-(4,4-difluorocyclohexyl)(6-(((5R)-2-oxo-5-(trifluoromethyl)piperidin-3-yl)methyl)imidazo[1,2-b]pyridazin-2-yl)methyl)-3-isopropylisoxazole-4-carboxamide] |
| 100 to 1000 | Cc1conc1C(=O)N[C@H](c1cn2nc(CC3C[C@@H](C(F)(F)F)CNC3=O)ccc2n1)C1CCC(F)(F)CC1 (stereo partly drawn) [Compound 103, N-((1S)-(4,4-difluorocyclohexyl)(6-(((5R)-2-oxo-5-(trifluoromethyl)piperidin-3-yl)methyl)imidazo[1,2-b]pyridazin-2-yl)methyl)-4-methylisoxazole-3-carboxamide] |
| 100 to 1000 | O=C(N[C@H](c1cn2nc(CC3C[C@@H](C(F)(F)F)CNC3=O)ccc2n1)C1CCC(F)(F)CC1)c1conc1CCF (stereo partly drawn) [Compound 110, N-((1S)-(4,4-difluorocyclohexyl)(6-(((5R)-2-oxo-5-(trifluoromethyl)piperidin-3-yl)methyl)imidazo[1,2-b]pyridazin-2-yl)methyl)-3-(2-fluoroethyl)isoxazole-4-carboxamide] |
| 100 to 1000 | O=C(N[C@H](c1cn2nc(CC3C[C@@H](C(F)(F)F)CNC3=O)ccc2n1)C1CCC(F)(F)CC1)c1conc1C(F)(F)F (stereo partly drawn) [Compound 114, N-((1S)-(4,4-difluorocyclohexyl)(6-(((5R)-2-oxo-5-(trifluoromethyl)piperidin-3-yl)methyl)imidazo[1,2-b]pyridazin-2-yl)methyl)-3-(trifluoromethyl)isoxazole-4-carboxamide] |
| 100 to 1000 | Cc1nocc1C(=O)N[C@H](c1cn2nc(CC3C[C@@H](C(F)(F)F)CNC3=O)ccc2n1)C1CCC(F)(F)CC1 (stereo partly drawn) [Compound 118, N-((1S)-(4,4-difluorocyclohexyl)(6-(((5R)-2-oxo-5-(trifluoromethyl)piperidin-3-yl)methyl)imidazo[1,2-b]pyridazin-2-yl)methyl)-3-methylisoxazole-4-carboxamide] |
| 100 to 1000 | O=C(N[C@H](c1cn2nc(CC3C[C@@H](C(F)(F)F)CNC3=O)ccc2n1)C1CCC(F)(F)CC1)c1conc1CF (stereo partly drawn) [Compound 119, N-((1S)-(4,4-difluorocyclohexyl)(6-(((5R)-2-oxo-5-(trifluoromethyl)piperidin-3-yl)methyl)imidazo[1,2-b]pyridazin-2-yl)methyl)-3-(fluoromethyl)isoxazole-4-carboxamide] |
| 100 to 1000 | CC(C)(F)c1nocc1C(=O)N[C@H](c1cn2nc(CC3C[C@@H](C(F)(F)F)CNC3=O)ccc2n1)C1CCC(F)(F)CC1 (stereo partly drawn) [Compound 121, N-((1S)-(4,4-difluorocyclohexyl)(6-(((5R)-2-oxo-5-(trifluoromethyl)piperidin-3-yl)methyl)imidazo[1,2-b]pyridazin-2-yl)methyl)-3-(2-fluoropropan-2-yl)isoxazole-4-carboxamide] |
| 100 to 1000 | O=C(N[C@H](c1cn2nc(CC3C[C@@H](C(F)(F)F)CNC3=O)ccc2n1)C1CCC(F)(F)CC1)c1conc1C1(F)CC1 (stereo partly drawn) [Compound 122, N-((1S)-(4,4-difluorocyclohexyl)(6-(((5R)-2-oxo-5-(trifluoromethyl)piperidin-3-yl)methyl)imidazo[1,2-b]pyridazin-2-yl)methyl)-3-(1-fluorocyclopropyl)isoxazole-4-carboxamide] |
